From paper PMC6277767, “Broad and Region-Specific Impacts of the Synthetic Cannabinoid CP 55,940 in Adolescent and Adult Female Mouse Brains” (Frontiers in Molecular Neuroscience, 2018)

Tested on: CD1 female mouse brain lipidome
Assay: Brain-region lipid levels (HPLC/MS/MS lipidomics) 2 h after single i.p. 3 mg/kg CP 55,940 vs vehicle
Type: in vivo
Method: The Bloomington Institutional Animal Care and Use Committee of Indiana University reviewed and approved the animal procedures. Female mice from the CD1 strain were utilized to match our study examining THC’s effects on the brain lipidome ([Leishman et al., 2018]). Mice were given a single i.p. injection of either 3 mg/kg CP or 1:1:18 cremophor:ethanol:saline vehicle (please refer to the section “3 mg/kg CP Is Relevant for Synthetic Cannabinoid Abuse and Has Stronger Effects on the Female Mouse Brain Lipidome During Adolescence” for a justification of dose and use of female mice). Three different age groups were given injections: PND 35 and PND 50 adolescents, and adult mice (PND 113). At least eight mice in each age group received CP and at least eight received vehicle. Matching the THC study time course ([Leishman et al., 2018]), mice were sacrificed via rapid decapitation 2 h after injection. Brains were immediately removed and flash-frozen in liquid nitrogen, and then stored at -80°C until dissections were performed. Brains were dissected on an ice-cold dissection plate into the following regions: STR, HIPP, CER, THAL, CTX, HYP, MID, and STEM. These abbreviations for these brain areas will be used exclusively when discussing the results generated by these specific dissections. Each dissected area was immediately placed in liquid nitrogen and then stored at -80°C until used for lipid extraction.
Tissue extracts were performed as previously described ([Bradshaw et al., 2006]; [Stuart et al., 2013]; [Raboune et al., 2014]; [Leishman et al., 2016a],[b], [2017], [2018]). First, samples were shock frozen in liquid nitrogen, weighed, and transferred to a centrifuge tube. The mass of the largest sample was multiplied by 50 to determine how many milliliters of HPLC-grade methanol (Fisher, Fair Lawn, NJ, United States) to add. Then, samples were spiked with 500 pmol deuterium-labeled NAGly (d8NAGly; Cayman Chemical, Ann Arbor, MI, United States). Samples were placed on ice in darkness for 2 h then individually homogenized and centrifuged at 19,000 × g for 20 min at 20°C. Supernatants were diluted with HPLC water (purified in house) to make a solution of 75% water, 25% supernatant. Lipids were partially purified on C18 solid phase extraction columns (Agilent, Palo Alto, CA, United States). A series of four elutions with 1.5 mL of 60%, 75%, 85%, and 100% methanol were collected ([Stuart et al., 2013]; [Leishman et al., 2016a],[b], [2018]).
As previously described ([Bradshaw et al., 2006]; [Tan et al., 2006]; [Smoum et al., 2010]; [Stuart et al., 2013]; [Tortoriello et al., 2013]; [Raboune et al., 2014]; [Leishman et al., 2016a],[b], [2017], [2018]), samples were analyzed using an Applied Biosystems API 3000 triple quadrupole mass spectrometer with electrospray ionization (Foster City, CA, United States). Using an Agilent XDB-C18 reversed phase analytical column and optimized mobile phase gradients, 20 μL from each elution were chromatographed. Two Shimadzu 10ADvp pumps (Columbia, MD, United States) provided the pressure for gradient elution. Mobile phase A: 20% methanol, 80% water (v/v) and 1 mM ammonium acetate (Sigma, St. Louis, MO, United States). Mobile phase B: 100% methanol, 1 mM ammonium acetate. Every method run began with 0% mobile phase B, reached 100% mobile phase B flowing at 0.2 mL/min, and gradually returned to 0% mobile phase B.
This screening library will be referred to as the lipidome when discussing data from this study. HPLC/MS/MS data were analyzed using Analyst software (Applied Biosystems) ([Bradshaw et al., 2006]; [Tan et al., 2006]; [Stuart et al., 2013]; [Tortoriello et al., 2013]; [Raboune et al., 2014]; [Leishman et al., 2016a],[b], [2017], [2018]). Chromatograms (Supplementary Figure 3) were generated by determining the retention time of analytes from the analytical column with a [M-1] or [M+1] parent peak and a fragmentation peak corresponding to the programmed values. […]

Compound: CCCCCCC(C)(C)c1ccc([C@@H]2C[C@H](O)CC[C@H]2CCCO)c(O)c1 [CP 55,940]
- PGF2α level vs vehicle (PND 35 STR): ↑ (1-1.49 times higher than vehicle)
- 2-linoleoyl glycerol level vs vehicle (PND 35 THAL): ↓ (1-1.49 times lower than vehicle)
- 6-ketoPGF1α level vs vehicle (PND 35 THAL): ↓ (1-1.49 times lower than vehicle)
- N- stearoyl valine level vs vehicle (PND 35 THAL): ↑ (1-1.49 times higher than vehicle)
- N-arachidonoyl GABA level vs vehicle (PND 35 THAL): ↓ (1-1.49 times lower than vehicle)
- N-arachidonoyl alanine level vs vehicle (PND 35 THAL): ↓ (1-1.49 times lower than vehicle)
- N-arachidonoyl ethanolamine level vs vehicle (PND 35 THAL): ↑ (1-1.49 times higher than vehicle)
- N-arachidonoyl glycine level vs vehicle (PND 35 THAL): ↓ (1-1.49 times lower than vehicle)
- N-arachidonoyl phenylalanine level vs vehicle (PND 35 THAL): ↑ (1-1.49 times higher than vehicle)
- N-arachidonoyl serine level vs vehicle (PND 35 THAL): ↓ (1-1.49 times lower than vehicle)
- N-arachidonoyl taurine level vs vehicle (PND 35 THAL): ↓ (1-1.49 times lower than vehicle)
- N-docosahexaenoyl GABA level vs vehicle (PND 35 THAL): ↓ (1-1.49 times lower than vehicle)
- N-docosahexaenoyl alanine level vs vehicle (PND 35 THAL): ↓ (1-1.49 times lower than vehicle)
- N-docosahexaenoyl glycine level vs vehicle (PND 35 THAL): ↓ (1-1.49 times lower than vehicle)
- N-docosahexaenoyl leucine level vs vehicle (PND 35 THAL): ↑↑ (1.50-1.99 times higher than vehicle)
- N-docosahexaenoyl phenylalanine level vs vehicle (PND 35 THAL): ↑ (1-1.49 times higher than vehicle)
- N-linoleoyl ethanolamine level vs vehicle (PND 35 THAL): ↑ (1-1.49 times higher than vehicle)
- N-oleoyl GABA level vs vehicle (PND 35 THAL): ↓ (1-1.49 times lower than vehicle)
- N-oleoyl alanine level vs vehicle (PND 35 THAL): ↓ (1-1.49 times lower than vehicle)
- N-oleoyl glycine level vs vehicle (PND 35 THAL): ↓ (1-1.49 times lower than vehicle)
- N-oleoyl leucine level vs vehicle (PND 35 THAL): ↑ (1-1.49 times higher than vehicle)
- N-oleoyl valine level vs vehicle (PND 35 THAL): ↑ (1-1.49 times higher than vehicle)
- N-palmitoyl GABA level vs vehicle (PND 35 THAL): ↑ (1-1.49 times higher than vehicle)
- N-palmitoyl leucine level vs vehicle (PND 35 THAL): ↑ (1-1.49 times higher than vehicle)
- N-palmitoyl phenylalanine level vs vehicle (PND 35 THAL): ↑ (1-1.49 times higher than vehicle)
- N-palmitoyl tyrosine level vs vehicle (PND 35 THAL): ↑ (1-1.49 times higher than vehicle)
- N-palmitoyl valine level vs vehicle (PND 35 THAL): ↑↑ (1.50-1.99 times higher than vehicle)
- N-stearoyl serine level vs vehicle (PND 35 THAL): ↓ (1-1.49 times lower than vehicle)
- N-stearoyl tyrosine level vs vehicle (PND 35 THAL): ↓ (1-1.49 times lower than vehicle)
- PGE2 level vs vehicle (PND 35 THAL): ↑ (1-1.49 times higher than vehicle)
- phosphoLEA level vs vehicle (PND 35 THAL): ↑ (1-1.49 times higher than vehicle)
- changes in NAEs (PND 35 brain): 17
- changes in PG levels (PND 35 brain): 15
- changes in lipoamines derived from AA (PND 35 brain): 50
- decreases in 2-acyl glycerol levels (PND 35 brain): 15
- decreases in PG levels (PND 35 brain): 5
- decreases in free fatty acid levels (PND 35 brain): Eight
- increases in PG levels (PND 35 brain): 10
- percentage of detected lipids modified with acute CP (PND 35 brain, 529 detected): 43.67%
- 2-arachidonoyl glycerol, Direction (relative to Veh) (PND 35 hypothalamus): ↓
- 2-arachidonoyl glycerol, Magnitude (x Veh level) (PND 35 hypothalamus): 0.39 x Veh level
- 2-linoleoyl glycerol Direction (relative to Veh) (PND 35 hypothalamus): ↓
- 2-linoleoyl glycerol Magnitude (x Veh level) (PND 35 hypothalamus): 0.63 x Veh level
- 2-oleoyl glycerol, Direction (relative to Veh) (PND 35 hypothalamus): ↓
- 2-oleoyl glycerol, Magnitude (x Veh level) (PND 35 hypothalamus): 0.55 x Veh level
- 2-palmitoyl glycerol, Direction (relative to Veh) (PND 35 hypothalamus): ↑
- 2-palmitoyl glycerol, Magnitude (x Veh level) (PND 35 hypothalamus): 1.29 x Veh level
- Arachidonic acid, Direction (relative to Veh) (PND 35 hypothalamus): ↓
- Arachidonic acid, Magnitude (x Veh level) (PND 35 hypothalamus): 0.85 x Veh level
- Linoleic acid, Direction (relative to Veh) (PND 35 hypothalamus): ↓
- Linoleic acid, Magnitude (x Veh level) (PND 35 hypothalamus): 0.75 x Veh level
- N-arachidonoyl GABA Direction (relative to Veh) (PND 35 hypothalamus): ↓
- N-arachidonoyl GABA Magnitude (x Veh level) (PND 35 hypothalamus): 0.74 x Veh level
- N-arachidonoyl alanine Magnitude (x Veh level) (PND 35 hypothalamus): 0.55 x Veh level
- N-arachidonoyl alanine, Direction (relative to Veh) (PND 35 hypothalamus): ↓
- N-arachidonoyl ethanolamine, Direction (relative to Veh) (PND 35 hypothalamus): ↓
- N-arachidonoyl ethanolamine, Magnitude (x Veh level) (PND 35 hypothalamus): 0.76 x Veh level
- N-arachidonoyl glycine Direction (relative to Veh) (PND 35 hypothalamus): ↓
- N-arachidonoyl glycine Magnitude (x Veh level) (PND 35 hypothalamus): 0.70 x Veh level
- N-arachidonoyl phenylalanine, Direction (relative to Veh) (PND 35 hypothalamus): ↓
- N-arachidonoyl phenylalanine, Magnitude (x Veh level) (PND 35 hypothalamus): 0.86 x Veh level
- N-arachidonoyl taurine Direction (relative to Veh) (PND 35 hypothalamus): ↓
- N-arachidonoyl taurine Magnitude (x Veh level) (PND 35 hypothalamus): 0.70 x Veh level
- N-docosahexaenoyl GABA Direction (relative to Veh) (PND 35 hypothalamus): ↓
- N-docosahexaenoyl GABA Magnitude (x Veh level) (PND 35 hypothalamus): 0.68 x Veh level
- N-docosahexaenoyl ethanolamine, Direction (relative to Veh) (PND 35 hypothalamus): ↓
- N-docosahexaenoyl ethanolamine, Magnitude (x Veh level) (PND 35 hypothalamus): 0.59 x Veh level
- N-linoleoyl alanine direction (relative to Veh) (PND 35 hypothalamus): ↓
- N-linoleoyl alanine magnitude (x Veh level) (PND 35 hypothalamus): 0.77 x Veh level
- N-oleoyl GABA Magnitude (x Veh level) (PND 35 hypothalamus): 0.87 x Veh level
- N-oleoyl GABA direction (relative to Veh) (PND 35 hypothalamus): ↓
- N-oleoyl alanine Magnitude (x Veh level) (PND 35 hypothalamus): 0.84 x Veh level
- N-oleoyl alanine direction (relative to Veh) (PND 35 hypothalamus): ↓
- N-oleoyl ethanolamine, Direction (relative to Veh) (PND 35 hypothalamus): ↓
- N-oleoyl ethanolamine, Magnitude (x Veh level) (PND 35 hypothalamus): 0.65 x Veh level
- N-palmitoyl ethanolamine, Direction (relative to Veh) (PND 35 hypothalamus): ↓
- N-palmitoyl ethanolamine, Magnitude (x Veh level) (PND 35 hypothalamus): 0.66 x Veh level
- N-palmitoyl leucine, Direction (relative to Veh) (PND 35 hypothalamus): ↑
- N-palmitoyl leucine, Magnitude (x Veh level) (PND 35 hypothalamus): 1.30 x Veh level
- N-stearoyl ethanolamine direction (relative to Veh) (PND 35 hypothalamus): ↓
- N-stearoyl ethanolamine magnitude (x Veh level) (PND 35 hypothalamus): 0.73 x Veh level
- Oleic acid, Direction (relative to Veh) (PND 35 hypothalamus): ↓
- Oleic acid, Magnitude (x Veh level) (PND 35 hypothalamus): 0.72 x Veh level
- PGE2 Direction (relative to Veh) (PND 35 hypothalamus): ↓
- PGE2 Magnitude (x Veh level) (PND 35 hypothalamus): 0.78 x Veh level
- PGF2α Direction (relative to Veh) (PND 35 hypothalamus): ↑
- PGF2α Magnitude (x Veh level) (PND 35 hypothalamus): 1.27 x Veh level
- phoshoLEA direction (relative to Veh) (PND 35 hypothalamus): ↑
- phoshoLEA magnitude (x Veh level) (PND 35 hypothalamus): 1.47 x Veh level
- 2-linoleoyl glycerol: Magnitude (x Veh level) (PND 35 midbrain, 3mg/kg): 0.76 x Veh level
- 6-ketoPGF1α: Magnitude (x Veh level) (PND 35 midbrain, 3mg/kg): 0.86 x Veh level
- Arachidonic acid: Magnitude (x Veh level) (PND 35 midbrain, 3mg/kg): 0.88 x Veh level
- N-arachidonoyl GABA: Magnitude (x Veh level) (PND 35 midbrain, 3mg/kg): 0.69 x Veh level
- N-arachidonoyl alanine: Magnitude (x Veh level) (PND 35 midbrain, 3mg/kg): 0.79 x Veh level
- N-arachidonoyl glycine: Magnitude (x Veh level) (PND 35 midbrain, 3mg/kg): 0.89 x Veh level
- N-arachidonoyl serine: Magnitude (x Veh level) (PND 35 midbrain, 3mg/kg): 0.82 x Veh level
- N-arachidonoyl taurine: Magnitude (x Veh level) (PND 35 midbrain, 3mg/kg): 0.87 x Veh level
- N-arachidonoyl tyrosine: Magnitude (x Veh level) (PND 35 midbrain, 3mg/kg): 0.81 x Veh level
- N-docosahexaenoyl GABA: Magnitude (x Veh level) (PND 35 midbrain, 3mg/kg): 0.72 x Veh level
- N-docosahexaenoyl alanine: Magnitude (x Veh level) (PND 35 midbrain, 3mg/kg): 0.82 x Veh level
- N-docosahexaenoyl glycine: Magnitude (x Veh level) (PND 35 midbrain, 3mg/kg): 0.88 x Veh level
- N-docosahexaenoyl leucine: Magnitude (x Veh level) (PND 35 midbrain, 3mg/kg): 1.40 x Veh level
